Results: patent publication US20170066717A1, “NEW PHENYLAZETIDINECARBOXYLATE OR -CARBOXAMIDE COMPOUNDS” (INVENTIVA, priority 2014, published 2017)

Tests used:
[1] = biological target: T1, NURR-1/RXRα (Homo sapiens, UniProt P19793); assay: Transactivation test, NURR-1-Gal4/RXRα, luciferase reporter in Cos-7 cells; assay type: cell-based; conditions: for Emax: COS-7, induction level relative to reference XCT0135908 at 2×10^−5 M (=100%), read-out: hNurr1_RXRaFL Emax (%); for EC50: Cos-7 cells, NURR-1-Gal4/RXRα, luciferase reporter, read-out: hNurr1_RXRaFL EC50; for hNurr1_RXRaFL Emax (%): induction level relative to reference XCT0135908 at 2×10^−5 M (=100%)
T1 construct: expressed in transfected cells; host or cells: Cos-7 cells

[2] = biological target: T2, NURR-1/RXRγ (Homo sapiens, UniProt P48443); assay: Transactivation test, NURR-1-Gal4/RXRγ, luciferase reporter in Cos-7 cells; assay type: cell-based; conditions: for Emax: COS-7, induction level relative to reference XCT0135908 at 2×10^−5 M (=100%), read-out: hNurr1_RXRgFL Emax (%); for EC50: Cos-7 cells, NURR-1-Gal4/RXRγ, luciferase reporter, read-out: hNurr1_RXRgFL EC50; for hNurr1_RXRgFL Emax (%): induction level relative to reference XCT0135908 at 2×10^−5 M (=100%)
T2 construct: expressed in transfected cells; host or cells: Cos-7 cells
T2 sequence (P48443 whole entry, the tested form may be a part): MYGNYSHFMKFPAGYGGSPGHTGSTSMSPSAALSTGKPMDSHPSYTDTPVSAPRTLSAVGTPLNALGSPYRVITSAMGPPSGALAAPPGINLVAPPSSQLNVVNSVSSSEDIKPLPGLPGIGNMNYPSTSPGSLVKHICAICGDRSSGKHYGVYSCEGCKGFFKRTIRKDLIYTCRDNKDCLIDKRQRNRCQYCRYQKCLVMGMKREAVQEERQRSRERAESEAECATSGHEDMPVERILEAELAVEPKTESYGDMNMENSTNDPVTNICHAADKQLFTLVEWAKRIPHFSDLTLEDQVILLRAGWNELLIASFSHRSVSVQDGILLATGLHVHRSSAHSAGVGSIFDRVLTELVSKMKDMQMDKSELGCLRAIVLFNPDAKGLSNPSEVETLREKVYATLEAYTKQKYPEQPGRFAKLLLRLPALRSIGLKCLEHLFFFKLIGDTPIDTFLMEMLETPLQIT
T2 sequence (P43354 whole entry partner, the tested form may be a part): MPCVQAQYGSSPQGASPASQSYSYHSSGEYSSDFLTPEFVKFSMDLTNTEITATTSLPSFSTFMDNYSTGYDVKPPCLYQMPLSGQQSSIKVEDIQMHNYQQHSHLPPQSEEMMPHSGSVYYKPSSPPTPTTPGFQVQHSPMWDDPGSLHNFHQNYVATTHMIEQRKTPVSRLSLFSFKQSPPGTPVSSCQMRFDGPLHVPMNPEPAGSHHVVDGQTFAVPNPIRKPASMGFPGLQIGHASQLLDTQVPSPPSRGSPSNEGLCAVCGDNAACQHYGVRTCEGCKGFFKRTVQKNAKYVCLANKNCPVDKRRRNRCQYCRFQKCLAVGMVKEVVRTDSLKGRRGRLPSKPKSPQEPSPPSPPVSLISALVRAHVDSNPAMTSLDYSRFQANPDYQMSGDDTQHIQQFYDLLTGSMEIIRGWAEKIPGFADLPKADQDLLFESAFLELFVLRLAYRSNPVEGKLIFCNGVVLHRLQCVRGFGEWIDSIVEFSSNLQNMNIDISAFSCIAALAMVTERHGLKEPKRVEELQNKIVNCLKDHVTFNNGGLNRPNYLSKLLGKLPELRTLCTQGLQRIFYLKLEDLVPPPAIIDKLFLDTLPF
T2 sequence (P04386 1-147 partner limits assumed): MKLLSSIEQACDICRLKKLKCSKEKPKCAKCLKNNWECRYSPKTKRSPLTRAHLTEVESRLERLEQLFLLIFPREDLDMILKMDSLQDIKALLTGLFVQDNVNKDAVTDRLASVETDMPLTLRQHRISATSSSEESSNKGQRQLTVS

T1 sequence (P19793 whole entry, the tested form may be a part): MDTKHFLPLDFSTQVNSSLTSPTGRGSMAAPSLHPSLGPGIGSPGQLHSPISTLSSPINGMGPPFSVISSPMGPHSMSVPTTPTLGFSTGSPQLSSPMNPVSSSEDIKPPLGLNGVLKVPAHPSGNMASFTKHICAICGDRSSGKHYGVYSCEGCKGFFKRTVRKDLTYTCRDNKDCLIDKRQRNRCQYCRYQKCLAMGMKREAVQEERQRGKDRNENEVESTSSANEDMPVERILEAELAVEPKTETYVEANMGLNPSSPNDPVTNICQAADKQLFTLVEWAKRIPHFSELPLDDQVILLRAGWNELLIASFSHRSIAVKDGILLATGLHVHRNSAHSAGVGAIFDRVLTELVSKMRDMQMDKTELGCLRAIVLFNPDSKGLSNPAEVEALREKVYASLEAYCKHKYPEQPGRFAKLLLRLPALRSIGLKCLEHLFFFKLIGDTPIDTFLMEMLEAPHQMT
T1 sequence (P43354 whole entry partner, the tested form may be a part): as the sequence (P43354 whole entry partner, the tested form may be a part) above
T1 sequence (P04386 1-147 partner limits assumed): as the sequence (P04386 1-147 partner limits assumed) above

SMILES	Emax [1] [%]	EC50 [1] [nM]	Emax [2] [%]	EC50 [2] [nM]	melting point [°C]	hNurr1_RXRaFL Emax (%) [1] [%]	hNurr1_RXRgFL Emax (%) [2] [%]
CC(C)c1ccc2c(c1)CCCN2c1cccc(N2CC(C(=O)[O-])C2)c1.[Na+] [Example 221, sodium 1-[3-(6-isopropyl-3,4-dihydro-2H-1uinolin-1-yl)phenyl]azetidine-3-carboxylate]	97	68	92	228	49 to 52	–	–
CC1(C)CN(c2cccc(N3CC(C(=O)O)C3)c2)c2ccc(Cl)cc2O1 [Example 224, 1-[3-(7-chloro-2,2-dimtethyl-3H-1,4-benzoxazin-4-yl)phenyl]azetidine-3-carboxylic acid]	110	38	93	65	66 to 71	–	–
CC(C)CC1Oc2cc(C(F)(F)F)ccc2N(c2cccc(N3CC(C(=O)O)C3)c2)C1=O (single isomer, unassigned; isomer 2) [Example 246-2, 1-[3-[2-isobutyl-3-oxo-7-(trofluormethyl)-1,4-benzoxazin-4-yl]phenyl]azetidine-3-carboxylic acid, isomer 2]	–	73	–	126	57 to 70	58	46
COc1cc2c(c(-c3cccc(N4CC(C(=O)[O-])C4)c3)c1)NCC(C)(C)O2.[Na+] [Example 193, sodium 1-[3-(7-methoxy-2,2-dimethyl-3,4-dihydro-1,4-benzoxazin-5-yl)phenyl]azetidine-3-carboxylate]	109	1170	85	799	144 to 152	–	–
CC1(C)Cc2cc(C(F)(F)F)ccc2N(c2cccc(N3CC(C(=O)O)C3)c2)C1 [Example 219, 1-[3-[3,3-dimethyl-6-(trifluoromethyl)-2,4-dihydroquinolin-1-yl]phenyl]azetidine-3-carboxylic acid]	105	5	110	32	66 to 84	–	–
Cc1nc2cc(C(F)(F)F)ccc2n1-c1cccc(N2CC(C(=O)O)C2)c1 [Example 262, 1-[3-[2-methyl-5-(trifluoromethyl)benzimidazol-1-yl]phenyl]azetidine-3carboxylic acid]	81	1700	98	2830	94 to 96	–	–
CC1(C)CNc2c(cc(C(C)(C)C)cc2-c2cccc(N3CC(C(=O)[O-])C3)c2)C1.[Na+] [Example 204, sodium 1-[3-(6-tert-butyl-3,3-dimethyl-2,4-dihydro-1H-quinolin-8-yl)phenyl]azetidine-3-carboxylate]	87	3	84	3	163 to 173	–	–
CC1(C)CNc2c(cc(C3CC3)cc2-c2cccc(N3CC(C(=O)O)C3)c2)O1 [Example 192, 1-[3-(7-cyclopropyl-2,2-dimethyl-3,4-dihydro-1,4-benzoxazin-5-yl)phenyl]azetidine-3-carboxylic acid]	92	40	89	102	70 to 74	–	–
Cc1c(N2CC(C(=O)O)C2)cccc1N1CC(C)(C)Oc2cc(C(F)(F)F)ccc21 [Example 238]	86	103	82	154	168 to 171	–	–
Cc1ccc(N2CC(C(=O)O)C2)cc1-c1cccc(C(C)C)c1 [Example 69, 1-[3-(3-isopripylphenyl)-4-methylphenyl]azetidine-3-carboxylic acid]	63	146	57	142	71 to 76	–	–
CC1(C)CN(c2cccc(N3CC(C(=O)O)C3)c2)c2ccc(OC(F)(F)F)cc2O1 [Example 226, 1-[3-[2,2-dimethyl-7-(trifluoromethyoxy)-3H-1,4-benzoxazin-4-yl]phenyl]azetidine-3-carboxylic acid]	103	71	106	156	69 to 76	–	–
CC1(C)CN(c2cccc(N3CC(C(=O)[O-])C3)c2)c2ncc(C(F)(F)F)cc2O1.[Na+] [Example 241, sodium 1-[3-[2,2-dimethyl-7-(trifluoromethyl)-3H-pyrido[3,2-b][1,4]oxazin-4-yl]phenyl]-azetidine-3-carboxylate]	100	110	107	194	123 to 139	–	–
CC(C)c1ccc2c(c1)c1c(n2-c2cccc(N3CC(C(=O)O)C3)c2)CCC(C)(C)C1 [Example 260, 1-[3-(6-isopropyl-3,3-dimethyl-2,4-1H-carbzaol-9-yl)phenyl]azetidine-3-carboxylic acid]	56	255	56	551	55 to 82	–	–
CC(C)CC1Oc2cc(C(F)(F)F)ccc2N(c2cccc(N3CC(C(=O)O)C3)c2)C1=O (stereo not drawn) [Example 246, 1-[3-[2-isobutyl-3-oxo-7-(trifluoromethyl)-1,4-benzoxazin-4-yl]phenyl]azetidine-3-carboxylic acid]	96	13	94	53	86 to 96	–	–
O=C(O)C1CN(c2cccc(N3CC4(CCOCC4)c4cc(C(F)(F)F)ccc43)c2)C1 [Example 141, 1-[3-[5-(trifluoromethyl)spiro[indoline-3,4′-tetrahydropyran]-1-yl]phenyl]azetidine-3-carboxylic acid]	92	140	113	199	154 to 162	–	–
CC1COc2cc(C(F)(F)F)ccc2N1c1cccc(N2CC(C(=O)O)C2)c1 (single isomer, unassigned; isomer 1) [Example 124-1, 1-[3-[3-methyl-7-(trifluoromethyl)-2,3-dihydro-1,4-benzoxazin-4-yl]phenyl]azetidine-3-carboxylic acid, isomer 1]	107	118	101	211	61	–	–
CC1(C)CCC2C(C1)c1cc(C(F)(F)F)ccc1N2c1cccc(N2CC(C(=O)O)C2)c1 (single isomer, unassigned; isomer 2) [Example 145-2, 1-[3-[3,3-dimethyl-6-(trifluoromethyl)-2,4,4a,9a-teterahydro-1H-carbazol-9-yl]phenyl]azetidine-3-carboxylic acid (isomer 2)]	–	2	–	< 1	82 to 94	86	99
CC1(C)Cc2cc(C(F)(F)F)ccc2N(c2cccc(N3CC(C(=O)O)C3)c2)C1=O [Example 259, 1-[3-[3,3-dimethyl-2-oxo-6-(trifluoromethyl)-4H-quinolin-1-yl]phenyl]azetidine-3-carboxylic acid]	95	101	98	349	96 to 100	–	–
